Experimental data published in patent publication US9776972B2, “Pyrazole derivatives as arginine methyltransferase inhibitors and uses thereof” (priority 2013, dated 2017).
Like-named read-outs stand apart in the source and are kept apart here.

Experiments:
human PRMT6 = target: T1, human PRMT6 (Homo sapiens, UniProt Q96LA8); assay: PRMT6 Biochemical Assay (3H-SAM Flashplate, peptide substrate)
T1 construct: Flag-PRMT6-His; made in house; host or cells: HEK 293F cells (BacMam baculovirus)
Summary of the method: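 Methylation of a biotin-tagged H4 (36-50) peptide by ³H-SAM was quantified by streptavidin Flashplate capture and scintillation counts (dpm/cpm). Before SAM/peptide addition, Flag-PRMT6-His was preincubated with compound for 30 min at room temperature in Bicine buffer, pH 7.6.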

human PRMT8 = human PRMT8 (Homo sapiens, UniProt Q9NR22); assay: PRMT8 Biochemical Assay (3H-SAM Flashplate, peptide substrate)
Excerpt: S-adenosylmethionine (SAM), S-adenosylhomocysteine (SAH), bicine, Tween20, dimethylsulfoxide (DMSO), bovine skin gelatin (BSG), isopropyl-β-D-thiogalactopyranoside (IPTG), and Tris(2-carboxyethyl)phosphine hydrochloride solution (TCEP) were purchased from Sigma-Aldrich at the highest level of purity possible. ^3H-SAM was purchase from American Radiolabeled Chemicals with a specific activity of 80 Ci/mmol. 384-well streptavidin Flashplates were purchased from PerkinElmer.
Peptide representative of human histone H4 residues 31-45 was synthesized with an N-terminal linker-affinity tag motif and a C-terminal amide cap by 21st Century Biochemicals.
E. coli (BL21(DE3) Gold, Stratagene) made competent by the CaCl2 method were transformed with the PRMT8 construct and ampicillin selection. Protein over-expression was accomplished by growing the PRMT8 expressing E. coli clone and inducing expression with 0.3 mM IPTG at 16° C. The culture was grown for 12 hours, harvested by centrifugation, and stored at −80° C. for purification.
GST-tagged PRMT8 was eluted with 50 mM Tris, 2 mM glutathione, pH 7.8. Pooled fractions were cleaved by thrombin (10 U) and dialysed in buffer A. GST was removed by reloading the cleaved protein sample onto glutathione sepharose column and PRMT8 was collected in the flow-through fractions. PRMT8 was purified further by ceramic hydroxyapatite chromatography. The column was washed with 50 mM phosphate buffer, 100 mM NaCl, 5% glycerol, 5 mM β-mercaptoethanol, pH 7.8 and PRMT8 was eluted by 100 mM phosphate in the same buffer. Protein was concentrated and buffer was exchanged to 50 mM Tris, 300 mM NaCl, 10% glycerol, 5 mM β-mercaptoethanol, pH 7.8 by ultrafiltration.
General Procedure for PRMT8 Enzyme Assays on Peptide Substrates.
The assays were all performed in a buffer consisting of 20 mM Bicine (pH=7.6), 1 mM TCEP, 0.005% BSG, and 0.002% Tween 20, prepared on the day of use. […] DMSO (1 ul) was added to Columns 11, 12, 23, 24, rows A-H for the maximum signal control and 1 ul of SAH, a known product and inhibitor of PRMT8, was added to columns 11, 12, 23, 24, rows I-P for the minimum signal control. A cocktail (40 ul) containing the PRMT8 enzyme was added by Multidrop Combi (Thermo-Fisher). The compounds were allowed to incubate with PRMT8 for 30 min at room temperature, then a cocktail (10 ul) containing ^3H-SAM and peptide was added to initiate the reaction (final volume=51 ul). […] The assays were stopped by the addition of non-radiolabeled SAM (10 ul) to a final concentration of 400 uM, which dilutes the ^3H-SAM to a level where its incorporation into the peptide substrate is no longer detectable. 50 ul of the reaction in the 384-well polypropylene plate was then transferred to a 384-well Flashplate and the biotinylated peptides were allowed to bind to the streptavidin surface for at least 1 hour before being washed once with 0.1% Tween20 in a Biotek ELx405 plate washer. The plates were then read in a PerkinElmer TopCount plate reader to measure the quantity of ^3H-labeled peptide bound to the Flashplate surface, measured as disintegrations per minute (dpm) or alternatively, referred to as counts per minute (cpm).
Where dpm=disintegrations per minute, cmpd=signal in assay well, and min and max are the respective minimum and maximum signal controls.
Where top and bottom are the normally allowed to float, but may be fixed at 100 or 0 respectively in a 3-parameter fit. The Hill Coefficient normally allowed to float but may also be fixed at 1 in a 3-parameter fit. Y is the % inhibition and X is the compound concentration.

[1] = Biochemical IC50 PRMT6, single experiment or average of multiple experiments
[2] = single experiment or average of multiple experiments

T1 sequence (Q96LA8 with tags, fused parts or gaps): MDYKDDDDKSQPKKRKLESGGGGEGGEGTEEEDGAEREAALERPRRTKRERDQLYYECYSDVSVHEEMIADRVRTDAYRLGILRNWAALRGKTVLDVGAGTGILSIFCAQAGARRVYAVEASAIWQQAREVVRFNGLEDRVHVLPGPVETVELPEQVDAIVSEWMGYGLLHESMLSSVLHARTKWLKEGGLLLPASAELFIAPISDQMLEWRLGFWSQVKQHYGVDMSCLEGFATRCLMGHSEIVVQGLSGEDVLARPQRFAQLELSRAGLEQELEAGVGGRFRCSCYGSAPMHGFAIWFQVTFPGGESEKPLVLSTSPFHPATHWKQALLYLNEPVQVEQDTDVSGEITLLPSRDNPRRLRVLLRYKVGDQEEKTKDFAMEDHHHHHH
human PRMT8, sequence (Q9NR22 whole entry): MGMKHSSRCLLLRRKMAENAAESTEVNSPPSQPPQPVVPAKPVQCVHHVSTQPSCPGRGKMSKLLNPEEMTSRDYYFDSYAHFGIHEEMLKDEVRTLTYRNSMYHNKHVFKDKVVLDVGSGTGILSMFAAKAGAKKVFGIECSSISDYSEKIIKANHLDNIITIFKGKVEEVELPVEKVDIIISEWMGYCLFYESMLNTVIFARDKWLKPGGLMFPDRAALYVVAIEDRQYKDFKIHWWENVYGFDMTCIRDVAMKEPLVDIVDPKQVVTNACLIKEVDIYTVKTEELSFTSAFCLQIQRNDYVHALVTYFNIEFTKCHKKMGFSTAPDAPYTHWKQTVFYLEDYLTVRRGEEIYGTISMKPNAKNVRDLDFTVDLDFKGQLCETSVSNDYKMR

Row | IC50 (human PRMT6; [1]) [nM] | IC50 (human PRMT8; [2]) [nM] | IC50 (human PRMT6; Biochemical IC50 PRMT6) [nM] | IC50 (human PRMT8) [nM] | SMILES | IC50 (human PRMT6; single experiment or average of multiple experiments, read-out: Biochemical IC50 PRMT6) [nM]
1 | 52.8 | 990 | – | – | Cc1c(F)cccc1-c1n[nH]cc1CN(C)CCN [Compound 129] | –
2 | 63.4 | 645 | – | – | COc1cccc(-c2n[nH]cc2CN(C)CCN)c1 [Compound 130] | –
3 | 12.1 | 360 | – | – | Cc1cccc(-c2n[nH]cc2CN(C)CCN)c1 [Compound 131] | –
4 | 10.1 | 142 | – | – | Cc1cc(Cl)ccc1-c1n[nH]cc1CN(C)CCN [Compound 133] | –
5 | 10.8 | 251 | – | – | COc1ccc(-c2n[nH]cc2CN(C)CCN)cc1F [Compound 134] | –
6 | 28.9 | 1320 | – | – | CN(CCN)Cc1c[nH]nc1-c1ccc(C(F)(F)F)cc1Cl [Compound 135] | –
7 | 12.8 | 496 | – | – | CCNC(=O)c1ccc(-c2n[nH]cc2CN(C)CCN)cc1 [Compound 136] | –
8 | 8.42 | 656 | – | – | CN(CCN)Cc1c[nH]nc1-c1cc(Cl)cc(Cl)c1 [Compound 137] | –
9 | 44.5 | 131 | – | – | CN(CCN)Cc1n[nH]cc1-c1ccc(OC(F)F)cc1 [Compound 138] | –
10 | 3010 | 8270 | – | – | CN(CCN)Cc1c[nH]nc1-c1ccccc1C#N [Compound 140] | –
11 | 7.79 | 305 | – | – | CN(CCN)Cc1c[nH]nc1-c1ccc(C(F)(F)F)c(F)c1 [Compound 141] | –
12 | 16.2 | 273 | – | – | COc1cc(-c2n[nH]cc2CN(C)CCN)ccc1F [Compound 142] | –
13 | 107 | 1750 | – | – | CCN(CC)C(=O)c1ccc(-c2n[nH]cc2CN(C)CCN)cc1 [Compound 143] | –
14 | 49.1 | 171 | – | – | CC(C)Oc1ccc(-c2c[nH]nc2CN(C)CCN)cc1F [Compound 144] | –
15 | 25.6 | 42.8 | < 100 | < 100 | CNCCN(C)Cc1c[nH]nc1-c1ccc(OC2COC2)cc1 [Compound 283] | –
16 | 40.5 | 90.2 | < 100 | < 100 | CNCCN(C)Cc1c[nH]nc1-c1ccc(OCC2CCOCC2)cc1 [Compound 284] | –
17 | 33.2 | 69.2 | < 100 | < 100 | CNCCN(C)Cc1c[nH]nc1-c1ccc(OCC2CCOC2)cc1 (stereo not drawn) [Compound 285] | –
18 | 14.3 | 14.2 | < 100 | < 100 | CNCCN(C)Cc1c[nH]nc1-c1ccc(OCC2CC2)cc1 [Compound 288] | –
19 | 36.5 | 46 | < 100 | < 100 | CNCCN(C)Cc1c[nH]nc1-c1ccc(OCCOC)cc1 [Compound 289] | –
20 | 11.5 | 10.6 | < 100 | < 100 | CCC(CC)Oc1ccc(-c2n[nH]cc2CN(C)CCNC)cc1 [Compound 290] | –
21 | 83.2 | 8.52 | < 100 | < 100 | CNCCN(C)Cc1c[nH]nc1-c1ccc(OC2CCOCC2)c(Cl)c1 [Compound 292] | –

Row | IC50 (human PRMT6; [1]) [nM] | IC50 (human PRMT8; [2]) [nM] | IC50 (human PRMT6; Biochemical IC50 PRMT6) [nM] | IC50 (human PRMT8) [nM] | SMILES | IC50 (human PRMT6; single experiment or average of multiple experiments, read-out: Biochemical IC50 PRMT6) [nM]
22 | 28.8 | 28 | < 100 | < 100 | CNCCN(C)Cc1c[nH]nc1-c1ccc(OC2CC2)cc1 [Compound 293] | –
23 | 64.9 | 33.7 | < 100 | < 100 | CNCCN(C)Cc1c[nH]nc1-c1ccc(NC(C)C)cc1 [Compound 295] | –
24 | 33 | 57.6 | < 100 | < 100 | CNCCN(C)Cc1c[nH]nc1-c1ccc(NCC(C)C)cc1 [Compound 296] | –
25 | 12.1 | 6.68 | < 100 | < 100 | CNCCN(C)Cc1c[nH]nc1-c1ccc(Oc2ccccc2)c(F)c1 [Compound 297] | –
26 | 26.9 | 16.3 | < 100 | < 100 | CNCCN(C)Cc1c[nH]nc1-c1ccc(OCC2CC2)c(F)c1 [Compound 298] | –
27 | 15.9 | 55 | < 100 | < 100 | CNCCN(C)Cc1c[nH]nc1-c1ccc(OC2CCC(O)CC2)cc1 (stereo not drawn) [Compound 299] | –
28 | 177 | 64.7 | 101 to 1000 | < 100 | CNCCN(C)Cc1c[nH]nc1-c1ccc(N(C)C(C)C)cc1 [Compound 300] | –
29 | 25.3 | 23.5 | < 100 | < 100 | CNCCN(C)Cc1c[nH]nc1-c1ccc(OC2CC2)c(F)c1 [Compound 301] | –
30 | 49.7 | 123 | < 100 | 101 to 1000 | CNCCN(C)Cc1c[nH]nc1-c1ccc(Oc2ncccn2)cc1 [Compound 302] | –
31 | 24 | 54.7 | < 100 | < 100 | CNCCN(C)Cc1c[nH]nc1-c1ccc(Oc2cncnc2)cc1 [Compound 303] | –
32 | 24.1 | 22.4 | < 100 | < 100 | CNCCN(C)Cc1c[nH]nc1-c1ccc(OC2CCC2)cc1 [Compound 304] | –
33 | 27.6 | 18.3 | < 100 | < 100 | CNCCN(C)Cc1c[nH]nc1-c1ccc(OC2CCC2)c(F)c1 [Compound 305] | –
34 | 23.3 | 18.5 | < 100 | < 100 | CNCCN(C)Cc1c[nH]nc1-c1ccc(OCC(C)C)cc1 [Compound 306] | –
35 | 19.7 | 14 | < 100 | < 100 | CNCCN(C)Cc1c[nH]nc1-c1ccc(OCC2CCC2)cc1 [Compound 307] | –
36 | 13.1 | 14.1 | < 100 | < 100 | CC[C@@H](C)Oc1ccc(-c2n[nH]cc2CN(C)CCNC)cc1 [Compound 308] | –
37 | 15.2 | 13 | < 100 | < 100 | CC[C@H](C)Oc1ccc(-c2n[nH]cc2CN(C)CCNC)cc1 [Compound 309] | –
38 | 32.4 | 17 | < 100 | < 100 | CCC(COC)Oc1ccc(-c2n[nH]cc2CN(C)CCNC)cc1 (stereo not drawn) [Compound 310] | –
39 | 50.3 | 50.9 | < 100 | < 100 | CNCCN(C)Cc1c[nH]nc1-c1ccc(OC(COC)C(C)C)cc1 (stereo not drawn) [Compound 311] | –
40 | 19.5 | 90.9 | < 100 | < 100 | CNCCN(C)Cc1c[nH]nc1-c1ccc(Oc2ccncn2)cc1 [Compound 312] | –
41 | 113 | 60.1 | 101 to 1000 | < 100 | CNCCN(C)Cc1c[nH]nc1-c1ccc(C(C)(C)COC)cc1 [Compound 313] | –
42 | 38.6 | 110 | < 100 | 101 to 1000 | CNCCN(C)Cc1c[nH]nc1-c1ccc(OC(COC)CC(C)C)cc1 (stereo not drawn) [Compound 314] | –

Row | SMILES | IC50 (human PRMT6; [1]) [nM] | IC50 (human PRMT8; [2]) [nM] | IC50 (human PRMT6; Biochemical IC50 PRMT6) [nM] | IC50 (human PRMT8) [nM] | IC50 (human PRMT6; single experiment or average of multiple experiments, read-out: Biochemical IC50 PRMT6) [nM]
43 | CN(CCN)Cc1c[nH]nc1-c1ccc(Cl)cc1F [Compound 132] | 9.91 | 365 | – | – | –
44 | CNCCN(C)Cc1c[nH]nc1-c1ccc(OC(CO)C(C)C)cc1 (stereo not drawn) [Compound 286] | – | 55.3 | < 100 | < 100 | 32.1
45 | CNCCN(C)Cc1c[nH]nc1-c1ccc(OC2CCOCC2)c(F)c1 [Compound 291] | 27.7 | 25.4 | < 100 | < 100 | –
